According to patent US20020049223A1, “Quinoline and naphthyridine carboxylic acid antibacterials” (priority 1999, published 2002):
Structures can show the parent of a compound that is named as a salt.

Columns and labels:
Test in all cases: Assay B: in vitro antibacterial activity, broth microdilution MIC (NCCLS)
Type in all cases: cell-based
Escherichia coli JUHL = conditions: Table 2, Assay B, cation-adjusted Mueller Hinton broth, 35° C., 16 to 20 hr; code D = Escherichia coli JUHL; unit assumed
In short: (§1)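 MIC is the lowest concentration with no visible growth after serial two-fold dilution in cation-adjusted Mueller Hinton broth, approximately 5×10^5 CFU/mL inoculum, 16-20 h at 35 °C in air (NCCLS). Broth for H. influenzae gets 5 g/L yeast extract, 0.3 mmol/L hematin and 15 mg/L NAD, for S. pneumoniae 3% lysed horse blood; both incubated 20-24 h.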

[1] = system: Haemophilus influenzae DILL AMP R; conditions: Table 2, Assay B, Mueller Hinton broth with yeast extract, hematin and NAD, 20 to 24 hr; code E = Haemophilus influenzae DILL AMP R; unit assumed
In short: as §1

[2] = system: Enterococcus faecalis PIU 1967; conditions: Table 2, Assay B, cation-adjusted Mueller Hinton broth, 35° C., 16 to 20 hr; code B = Enterococcus faecalis PIU 1967; unit assumed
In short: as §1

[3] = system: Staphylococcus aureus ATCC 6538P; conditions: Table 2, Assay B, cation-adjusted Mueller Hinton broth, 35° C., 16 to 20 hr; code A = Staphylococcus aureus ATCC 6538P; unit assumed
In short: as §1

[4] = system: Streptococcus pneumoniae ATCC 6303; conditions: Table 2, Assay B, Mueller Hinton broth with 3% lysed horse blood, 20 to 24 hr; code F = Streptococcus pneumoniae ATCC 6303; unit assumed
In short: as §1

SMILES | Antibacterial Activity (MIC's), D (Escherichia coli JUHL) [mg/L] | Antibacterial Activity (MIC's), E [1] [mg/L] | Antibacterial Activity (MIC's), B [2] [mg/L] | Antibacterial Activity (MIC's), A [3] [mg/L] | Antibacterial Activity (MIC's), F [4] [mg/L]
COc1c(-c2cc3c(s2)CCCC3NCc2cccc(F)c2)ccc2c(=O)c(C(=O)O)cn(C3CC3)c12 (stereo not drawn) [Example 104, 1-cyclopropyl-7-(4-((3-fluorobenzyl)amino)-4,5,6,7-tetrahydro-1-benzothien-2-yl)-8-methoxy-4-oxo-1,4-dihydro-3-quinolinecarboxylic acid hydrochloride] | 2 | 0.25 | 1 | 0.25 | 0.5
COc1c(-c2cc3c(s2)CCCC3=NN2CCN(C)CC2)ccc2c(=O)c(C(=O)O)cn(C3CC3)c12 [Example 92, 1-cyclopropyl-8-methoxy-7-((4E/Z)-4-((4-methyl-1-piperazinyl)imino)-4,5,6,7-tetrahydro-1-benzothien-2-yl)-4-oxo-1,4-dihydro-3-quinolinecarboxylic acid] | 1 | 0.06 | 0.25 | 0.03 | 0.5
CCON=C1CCc2sc(-c3ccc4c(=O)c(C(=O)O)cn(C5CC5)c4c3OC)cc2C1 [Example 78, 1-cyclopropyl-7-((5E/Z)-5-(ethoxyimino)-4,5,6,7-tetrahydro-1-benzothien-2-yl)-8-methoxy-4-oxo-1,4-dihydro-3-quinolinecarboxylic acid] | 4 | 2 | 1 | 0.125 | 0.25
CNC1CCc2sc(-c3ccc4c(=O)c(C(=O)O)cn(C5CC5)c4c3OC)cc2C1.Cl (stereo not drawn) [Example 125, 1-cyclopropyl-8-methoxy-7-(5-(methylamino)-4,5,6,7-tetrahydro-1-benzothien-2-yl)-4-oxo-1,4-dihydro-3-quinolinecarboxylic acid hydrochloride] | 0.125 | 0.03 | 0.25 | 0.004 | 0.03
COc1c(-c2cc3c(s2)CCCC3=NNC2=NCCN2)ccc2c(=O)c(C(=O)O)cn(C3CC3)c12 [Example 100, 1-cyclopropyl-7-((4E/Z)-4-(4,5-dihydro-1H-imidazol-2-ylhydrazono)-4,5,6,7-tetrahydro-1-benzothien-2-yl)-8-methoxv-4-oxo-1,4-dihydro-3-quinolinecarboxylic acid] | 0.25 | 0.125 | 0.5 | 0.06 | 0.03
Cl.NC1CCCc2sc(-c3ccc4c(=O)c(C(=O)O)cn(C5CC5)c4c3OC(F)F)cc21 (stereo not drawn) [Example 101, 7-(4-amino-4,5,6,7-tetrahydro-1-benzothien-2-yl)-1-cyclopropyl-8-(difluoromethoxy)-4-oxo-1,4-dihydro-3-quinolinecarboxylic acid hydrochloride] | 0.125 | 0.015 | 0.125 | 0.03 | 0.03
CNC1CCCc2sc(-c3nc4c(cc3F)c(=O)c(C(=O)O)cn4C3CC3)cc21 (stereo not drawn) [Example 108, 1-cyclopropyl-6-fluoro-7-(4-(methylamino)-4,5,6,7-tetrahydro-1-benzothien-2-yl)-4-oxo-1,4-dihydro[1,8]naphthyridine-3-carboxylic acid hydrochloride] | 0.03 | 0.008 | 1 | 0.015 | 0.25
CON=C1CCc2cc(-c3ccc4c(=O)c(C(=O)O)cn(C5CC5)c4c3OC)sc2C1 [Example 66, 1-cyclopropyl-8-methoxy-7-((6E/Z)-6-(methoxyimino)-4,5,6,7-tetrahydro-1-benzothien-2-yl)-4-oxo-1,4-dihydro-3-quinolinecarboxylic acid] | 2 | 0.5 | 0.5 | 0.06 | 0.5

The next lines start with the values.

Antibacterial Activity (MIC's), D (Escherichia coli JUHL) [mg/L] | Antibacterial Activity (MIC's), E [1] [mg/L] | Antibacterial Activity (MIC's), B [2] [mg/L] | Antibacterial Activity (MIC's), A [3] [mg/L] | Antibacterial Activity (MIC's), F [4] [mg/L] | SMILES
0.03 | 0.015 | 0.06 | 0.015 | 0.06 | Cl.NC1CCCc2cc(-c3c(F)cc4c(=O)c(C(=O)O)cn(C5CC5)c4c3F)sc21 (stereo not drawn) [Example 309, 7-(7-amino-4,5,6,7-tetrahydro-1-benzothien-2-yl)-1-cyclopropyl-6,8-difluoro-4-oxo-1,4-dihydroquinoline-3-carboxylic acid hydrochloride]
0.06 | 0.03 | 0.06 | 0.03 | 0.03 | CNC1CCCc2sc(-c3c(F)cc4c(=O)c(C(=O)O)cn(C5CC5)c4c3C)cc21.Cl (stereo not drawn) [Example 317, 1-cyclopropyl-6-fluoro-8-methyl-7-(4-(methylamino)-4,5,6,7-tetrahydro-1-benzothien-2-yl)-4-oxo-1,4-dihydroquinoline-3-carboxylic acid hydrochloride]
1 | 0.125 | 0.125 | 0.015 | 0.5 | COc1c(-c2cc3c(s2)CCC(C)(CO)C3=O)ccc2c(=O)c(C(=O)O)cn(C3CC3)c12 (stereo not drawn) [Example 207, 1-cyclopropyl-7-(5-(hydroxymethyl)-5-methyl-4-oxo-4,5,6,7-tetrahydro-1-benzothien-2-yl)-8-methoxy-4-oxo-1,4-dihydro-3-quinolinecarboxylic acid]
0.03 | 0.015 | 0.125 | 0.03 | 0.03 | CNC1CCCc2sc(-c3cc4c(cc3F)c(=O)c(C(=O)O)cn4C3CC3)cc21.Cl (stereo not drawn) [Example 290, 1-cyclopropyl-6-fluoro-7-(4-(methylamino)-4,5,6,7-tetrahydro-1-benzothien-2-yl)-4-oxo-1,4-dihydroquinoline-3-carboxylic acid hydrochloride]
0.25 | 0.06 | 0.25 | 0.004 | 0.125 | COc1c(-c2cc3c(s2)C(N)C(C)(C)CC3)ccc2c(=O)c(C(=O)O)cn(C3CC3)c12.Cl (stereo not drawn) [Example 245, 7-(7-amino-6,6-dimethyl-4,5,6,7-tetrahydro-1-benzothien-2-yl)-1-cyclopropyl-8-methoxy-4-oxo-1,4-dihydro-3-quinolinecarboxylic acid hydrochloride]
0.03 | 0.015 | 0.03 | 0.008 | 0.015 | Cl.NC1CCCc2sc(-c3c(F)cc4c(=O)c(C(=O)O)cn(C5CC5)c4c3F)cc21 (stereo not drawn) [Example 308, 7-(4-amino-4,5,6,7-tetrahydro-1-benzothien-2-yl)-1-cyclopropyl-6,8-difluoro-4-oxo-1,4-dihydroquinoline-3-carboxylic acid hydrochloride]
0.015 | ≤ 0.004 | 0.008 | ≤ 0.004 | 0.03 | O=C(O)c1cn(C2CC2)c2cc(-c3cc4c(s3)C(O)CCC4)c(F)cc2c1=O (stereo not drawn) [Example 293, 1-cyclopropyl-6-fluoro-7-(7-hydroxy-4,5,6,7-tetrahydro-1-benzothien-2-yl)-4-oxo-1,4-dihydroquinoline-3-carboxylic acid]
1 | 0.125 | 0.25 | 0.03 | 0.25 | COc1c(-c2cc3c(s2)CCC/C3=N\OCc2cccnc2)ccc2c(=O)c(C(=O)O)cn(C3CC3)c12 [Example 182, 1-cyclopropyl-8-methoxy-4-oxo-7-((4E)-4-((3-pyridinylmethoxy)imino)-4,5,6,7-tetrahydro-1-benzothien-2-yl)-1,4-dihydro-3-quinolinecarboxylic acid]
0.06 | 0.03 | 0.125 | 0.015 | 0.03 | Cc1c(F)c(-c2cc3c(s2)CCCC3N)nc2c1c(=O)c(C(=O)O)cn2C1CC1.Cl (stereo not drawn) [Example 367, 7-(4-amino-4,5,6,7-tetrahydro-1-benzothien-2-yl)-1-cyclopropyl-6-fluoro-5-methyl-4-oxo-1,4-dihydro-1,8-naphthyridine-3-carboxylic acid hydrochloride]
0.125 | 0.06 | 0.125 | 0.03 | 0.25 | O=C(O)c1cn(C2CC2)c2cc(-c3cc4c(s3)CCCC4O)ccc2c1=O (stereo not drawn) [Example 281, 1-cyclopropyl-7-(4-hydroxy-4,5,6,7-tetrahydro-1-benzothien-2-yl)-4-oxo-1,4-dihydroquinoline-3-carboxylic acid]
